Key:
WPMY-1 fibroblasts = assay: Collagen/Matrigel contraction of WPMY-1 fibroblasts; details: WPMY-1 in collagen/Matrigel, 120 nM digoxin, 5 ng/ml TGF-β, 4 days
Method: (§5) WPMY-1 (A) and MRC-5 (B) fibroblasts were treated with or without 120 nM digoxin±5 ng/ml TGF-β. […] WPMY-1 (C) and MRC-5 (D) fibroblasts embedded in collagen/Matrigel were treated with or without 120 nM digoxin±5 ng/ml TGF-β for 4 days post seeding. Data are shown as percent contracted area from initial 100% well confluence. *P<0.05 and **P<0.01 indicate significant differences (n=3, Values are ±SEM).

[1] = system: TGF-β-induced fibronectin expression; assay: Western blot of TGF-β-induced fibronectin expression in WPMY-1 fibroblasts; assay type: cell-based, human; details: WPMY-1, 5 ng/ml TGF-β, digoxin 30, 60, 120, 240 nM, 24 hours
Method: Inhibitors of CAF Differentiation. A. WPMY-1 cells were plated into each well of 4-chamber slice (for IF), or (C) in a 24 well plate (for western blot analysis). After cell attachment, vehicle or 5 ng/ml TGF-β was added into each well and incubated for 24 h in a 37° C. in a humidified incubator containing 5% CO2. For fluorescence detection (A), cells were fixed and stained with antibody detecting fibronectin and/or stained with DAPI to detect the nuclei. Protein was extracted with boiling Lamaelli buffer for WB (C) and blots were probed with anti-fibronectin or anti-tubulin antibodies. Fibronectin fluorescence (D and E) was measured in the presence or absence of TGF-β in 8 well replicates as follows. Cells were conditioned in serum-free DMEM for 48 hr prior to the addition of TGF-β. Images were acquired using a Cellomics platform with a mask shown in the schematic of (B). The mean of the total fluorescence intensity in each well was calculated from 300 cells per image field and up to 15 fields from each well for fibronectin. The fold change in fibronectin expression per acquired image (nuclei) is shown (Mean+/−SD).
Panel A1 is the control, Panel A2 is the TGF-β treated wells and Panel A3 is TGF-β plus PsA at 5 micromolar. Images were captured using the Cellomics imaging system.
(§1) Representative blots are shown with two exposures of fibronectin to account for strong signal intensity. n=3.
FIGS. 9A-9B: Increases in intracellular Ca^2+ prevent TGF-β-induced fibronectin expression. (A) WPMY-1 fibroblasts were treated with 2.5 μM thapsigargin±5 ng/ml TGF-β for 24 hours. (B) WPMY-1 fibroblasts were treated with 2.5-10 μM 3′,4′-dichlorobenzamil hydrochloride (DCB)±5 ng/ml TGF-β for 24 hours. Cell lysates were analyzed by western blot for fibronectin expression.
Because of the observed low nanomolar effective concentration of the cardiac glycosides, the inventors hypothesized that the cardiac glycosides may be acting by binding to their high affinity target, the Na^+/K^+ ATPase, and that action through the ATPase is the mechanism by which the cardiac glycosides are able to block TGF-β-induced fibronectin expression. It is well documented that inhibition of the Na^+/K^+ ATPase by digoxin leads to increases in intracellular Ca^2+ by preventing Ca^2+ efflux through the Na^+/Ca^2+ exchanger. In order to determine if increased intracellular Ca^2+ is sufficient to prevent TGF-β-induced fibronectin expression, the inventors utilized two compounds that increase intracellular Ca^2+ concentrations. 3′,4′-dichlorobenzamil hydrochloride (DCB) inhibits the Na^+/Ca^2+ exchanger, Na^+ transport, and sarcoplasmic reticulum Ca^2+ release channels. Thapsigargin inhibits the endoplasmic reticulum Ca^+ ATPase, preventing storage of Ca^2+ in the endoplasmic reticulurn, causing an accumulation in the cytoplasm. Cells were treated with 2.5-10 μM of DCB or thapsigargin±TGF-β for 24 hours.

EGR1 luciferase reporter = EGR1 luciferase reporter in WPMY-1 cells; assay type: cell-based, human; details: WPMY-1, digoxin 60 or 120 nM, 5 ng/ml TGF-β, 24 hours
Method: (§2) A) WPMY-1 human fibroblast cells transfected with SMAD (left) or EGR1 (right) luciferase reporter were treated with or without 5 ng/ml TGF-β in the presence or absence of Digoxin (60 or 120 nM) for 24 hours. Relative luciferase activity is shown. *P<0.05, **P<0.01, ***P<0.001 are significant differences compared to values set to 1 (n=3, Values are ±SEM). B) J2 mouse fibroblast cells were treated with or without 5 ng/ml TGF-β in the presence or absence of increasing concentrations (30, 60, 120, or 240 nM) of digoxin for 24 hours. Representative blot is shown with two exposures of fibronectin to account for strong signal intensity (n=3).
(§3) Finally, J2 mouse fibroblast cells were treated with or without 5 ng/ml TGF-β in the presence or absence of increasing concentrations (30, 60, 120, or 240 nM) of digoxin for 24 hours.

[2] = system: transcriptional upregulation of activated fibroblasts markers by TGF-β or IL-8; details: MRC-5, 10 ng/mL TGF-β or 20 ng/ml IL-8, 24 hours; digoxin 150 nM, pyrvinium 300 nM
Method: Expression of the indicated genes was analyzed by real-time qPCR. TGFβ treated samples were set at 1 and other conditions were normalized accordingly. FN1: fibronectin, YAPv4: yes-activated protein, TNC: tenascin C, Col1A1: collagen 1a1, WWTR1v2: WW domain-containing transcription regulator protein 1 (TAZ), and SNAI1: Snail1. Representative data from at least two independent experiments are provided.

[3] = system: TGF-β-induced fibronectin expression; assay: Western blot of TGF-β-induced fibronectin expression in MRC-5 fibroblasts (5 ng/ml TGF-β); assay type: cell-based, human; details: MRC-5, 5 ng/ml TGF-β, digoxin 30, 60, 120, 240 nM, 24 hours
Excerpt: as §1

[4] = system: TGF-β-induced CAF differentiation markers; assay: Real-Time PCR of CAF markers in WPMY-1 fibroblasts; assay type: cell-based, human; details: WPMY-1, 120 nM digoxin, 24 h
Method: (§4) In order to determine if digoxin prevents CAF differentiation or simply TGF-β-induced fibronectin expression, the inventors performed quantitative reverse transcriptase-PCR (qPCR) to analyze other CAF markers, including α-SMA, collagen 1a1 (COL1A1), fibroblast activation protein (FAP), and tenascin C (TNC). RNA was extracted from cells treated with 120 nM digoxin±TGF-β for 24 hours. […] Additionally, the inventors observed that α-SMA mRNA expression was already high in WPMY-1 cells and not increased by addition of TGF-β, but was reduced in response to digoxin treatment.

[5] = system: TGF-β-induced CAF differentiation markers; assay: Real-Time PCR of CAF markers in MRC-5 fibroblasts; assay type: cell-based, human; details: MRC-5, 120 nM digoxin, 5 ng/ml TGF-β, 24 h
Method: as §4

MRC-5 fibroblasts = assay: Collagen/Matrigel contraction of MRC-5 fibroblasts; details: MRC-5 in collagen/Matrigel, 120 nM digoxin, 5 ng/ml TGF-β, 4 days
Method: as §5

[6] = system: TGF-β-induced fibronectin expression; assay: Western blot of TGF-β-induced fibronectin in J2 mouse fibroblast cells; assay type: cell-based; details: J2 (3T3-J2) mouse fibroblasts, digoxin 30-240 nM, 5 ng/ml TGF-β, 24 hours
Method: as §2, §3
The inventors used 3T3-J2 murine fibroblasts, which are highly resistant to cardiac glycosides compared to theft human counterpart.

SMAD promoter activity = assay: SMAD luciferase reporter in WPMY-1 cells; assay type: cell-based, human; details: WPMY-1, digoxin 60 or 120 nM, 5 ng/ml TGF-β, 24 hours
Method: as §2, §3

## C[C@H]1O[C@@H](O[C@H]2[C@@H](O)C[C@H](O[C@H]3[C@@H](O)C[C@H](O[C@H]4CC[C@@]5(C)[C@H](CC[C@@H]6[C@@H]5C[C@@H](O)[C@]5(C)[C@@H](C7=CC(=O)OC7)CC[C@]65O)C4)O[C@@H]3C)O[C@@H]2C)C[C@H](O)[C@@H]1O [digoxin]
WPMY-1 fibroblasts
  TGF-β induced contraction of fibroblasts: inhibits TGF-β induced contraction of fibroblasts
[1]
  TGF-β-induced fibronectin expression (western blot): prevents TGF-β-induced fibronectin expression in a dose dependent manner
EGR1 luciferase reporter
  EGR-1 dependent promoter (luciferase) activity: lowers the activation of promoter dependent on EGR-1
[2]
  transcriptional induction of collagen 1a1, tenascin C, fibronectin, YAP, Snail (TGF-β) and TAZ (IL-8): prevented the transcriptional induction of collagen 1a1, tenascin C, fibronectin, YAP and Snail downstream of TGF-β signaling and TAZ downstream of the fibroblast chemokine IL-8
[3]
  TGF-β-induced fibronectin expression (western blot): prevents TGF-β-induced fibronectin expression in a dose dependent manner
[4]; 5 ng/ml TGF-β
  TGF-β-induced expression of FN1, COL1A1, FAP, TNC mRNA: prevented TGF-β-induced expression of FN1, COL1A1, FAP, and TNC mRNA
[4]
  α-SMA mRNA expression: reduced
[5]
  TGF-β-induced expression of FN1, α-SMA, COL1A1, TNC mRNA: prevented TGF-β-induced expression
MRC-5 fibroblasts
  TGF-β induced contraction of fibroblasts: inhibits TGF-β induced contraction of fibroblasts
[6]
  TGF-β-induced fibronectin expression in mouse fibroblasts: did not have an effect on TGF-β-induced fibronectin expression
[6]; listed as Digoxin
  TGF-β-induced fibronectin expression in mouse fibroblasts: did not prevent fibronectin induction even at high concentrations
SMAD promoter activity
  TGF-β-induced SMAD promoter (luciferase) activity: prevents the TGF-β induction of the SMAD signaling pathway

Source: patent publication US11096952B2, “Chemicals and methods to prevent and treat TGF-beta mediated activation of fibroblasts to reduce and treat cancer and fibrosis” (Board of Supervisors of Louisiana State University and …, priority 2016, dated 2021)
